Test results: patent publication US8563516B2, “Foxp3 peptide vaccine” (OncoTherapy Science, Inc., priority 2007, dated 2013)
Entries after “also recorded” stand apart in the source; their conditions may differ. Ends that are not written are not given here.

What was measured:
BALB/c mice = experiment: Immunogenicity of epitope peptides in BALB/c mice (IFN-gamma ELISPOT on splenocytes); format: in vivo
Procedure: IFA-conjugated peptide or IFA only were injected s.c. into BALB/c mice on day 0 and 7. On day 14, splenocytes of vaccinated mice were harvested and used as responder cells. 1×10^4 RLmale1 cells pulsed corresponding peptide (solid square), or no peptide (open square) were used as stimulator cells for IFN-gamma ELISPOT assay. Vaccination using Foxp3-252_h (A) and Foxp3-252_m (B) were performed into five mice (M1-M5) and IFA without any peptide injection were performed into three mice (N1-N3) as control in each assay.
For priming the peptide-specific CTLs, immunization was given using 100 mcl vaccine mixture, which contains 50 mcl HLA-A24 restricted peptide and 50 mcl IFA per mouse. The vaccine was injected s.c. into the right flank of mice for the first immunization on day 0 and in the left flank for the second on the day 7. On day 14, splenocytes from vaccinated mice were used as the responder cells, and RLmale1 cells pulsed with or without peptides were used as the stimulator cells for IFN-gamma ELISPOT assay.
To evaluate the immunogenicity of Foxp3-9-252 peptide for BALB/c mice, immunization with human Foxp3-9-252 peptide (Foxp3-252_h; KLSAMQAHL)(SEQ ID NO: 17) and mouse Foxp3-9-252 peptide (Foxp3-252_m; KLGAMQAHL) (SEQ ID NO: 89) were performed, respectively. After second injection of peptide, peptide specific CTL activity was determined by IFN-gamma ELISPOT assay (FIG. 5).

4T1 breast cancer cells = experiment: In vivo antitumor effects of vaccination, 4T1 tumor; design: species or system BALB/c mice; conditions: 4T1 s.c. day 0, vaccination day 3 and 10, compared with control mice, FIG. 6
Procedure: 1×10^5 4T1 breast cancer cell lines were injected into BALB/c mice on day 0. IFA-conjugated with Foxp3-252_h (-open circle-), Foxp3-252_m (-solid square-), no peptide (-solid triangle-) was injected on day 3 and 10. As control of normal tumor growth, non-vaccinated mice (-x-) were also prepared in this assay.
4T1 cells (1×10^5 per mouse) were injected s.c. into the right flank of BALB/c mice on day 0. Vaccination was done on days 3 and 10 using hFoxp3-252 (KLSAMQAHL: SEQ ID NO: 17) or mFoxp3-252 (KLGAMQAHL: SEQ ID NO: […]) IFA-conjugated peptides.
To examine the antitumor effects with peptide vaccination targeted Foxp3, in vivo therapeutic setting was attempted by using 4T1 tumor cells and BALB/c mice. The 4T1 breast cancer cells were injected s.c. into BALB/c mice on day 0, and then vaccination was done on these mice 3 and 10 days after the tumor challenge.

[1] = test system: peptide-pulsed A24LCL cells or T2 cells; experiment: In vitro CTL induction by peptide-loaded dendritic cells (summary statements); format: cell-based, human; conditions: for specific CTL activity: against peptide pulsed target cells; for establishment of CTLs: in vitro stimulation of T-cells by DCs loaded with peptide
Excerpt: Confirmation of CTL inducibility can be accomplished by inducing antigen-presenting cells carrying human MHC antigens (for example, B-lymphocytes, macrophages, and dendritic cells), or more specifically dendritic cells derived from human peripheral blood mononuclear leukocytes, and after stimulation with the peptides, mixing with CD8-positive cells, and then measuring the IFN-gamma produced and released by CTL against the target cells. As the reaction system, transgenic animals that have been produced to express a human HLA antigen (for example, those described in BenMohamed L, Krishnan R, Longmate J, Auge C, Low L, Primus J, Diamond D J, Hum Immunol 61(8): 764-79, 2000 August, Related Articles, Books, Linkout Induction of CTL response by a minimal epitope vaccine in HLA A*0201/DR1 transgenic mice: dependence on HLA class II restricted T(H) response) can be used. For example, the target cells can be radiolabeled with ^51Cr and such, and cytotoxic activity can be calculated from radioactivity released from the target cells. Alternatively, it can be examined by measuring IFN-gamma produced and released by CTL in the presence of antigen-presenting cells that carry immobilized peptides, and visualizing the inhibition zone on the media using anti-IFN-gamma monoclonal antibodies.
(§1) Monocyte-derived dendritic cells (DCs) were used as antigen-presenting cells (APCs) to induce CTL responses against peptides presented on HLA. DCs were generated in vitro as described elsewhere (Horiguchi S. et al. Cancer Res. 59:2950-6). Specifically, peripheral blood mononuclear cells (PBMCs) isolated from normal volunteer (HLA-A*2402 and/or HLA-A*0201) with Ficoll-Plaque (Pharmacia) solution were separated by adherence to plastic tissue culture dish (Becton Dickinson) so as to enrich them for the monocyte fraction. The monocyte-enriched population was cultured in the presence of 1000 U/ml of GM-CSF (R&D System) and 1000 U/ml of IL-4 (R&D System) in AIM-V medium (Invitrogen) containing 2% heat-inactivated autologous serum (AS). After 7 days in the culture, the cytokine-generated DCs were pulsed with 20 mcg/ml of the synthesized peptides in the presence of 3 mcg/ml of beta2-microglobulin for 4 hrs at 20 degrees C. in AIM-V medium. These peptide-pulsed DCs were then inactivated with mitomycin C (MMC) (30 mcg/ml for 30 mins) and mixed at a 1:20 ratio with autologous CD8+ T cells, obtained by positive selection with CD8 Positive Isolation Kit (Dynal). These cultures were set up in 48-well plates (Corning); each well contained 1.5×10^4 peptide-pulsed DCs, 3×10^5 CD8+ T cells and 10 ng/ml of IL-7 (R&D System) in 0.5 ml of AIM-V/2% AS. Three days later, these cultures were supplemented with IL-2 (CHIRON) to a final concentration of 20 IU/ml. On day 7 and 14, the T cells were further restimulated with the peptide-pulsed autologous DCs. The DCs were prepared each time through the same procedure described above. CTL activity was tested against peptide-pulsed A24LCL cells or T2 cells after the 3rd round of peptide stimulation on day 21.
(§2) To examine the specific CTL activity, IFN-gamma ELISPOT assay and IFN-gamma ELISA were performed. Briefly, peptide-pulsed A24-LCL, T2 cell (1×10^4/well) or the cells endogenously expressing Foxp3 and HLA molecule was prepared as a stimulator cells. Cultured CTL lines in 48 wells were used as a responder cells. IFN-gamma ELISPOT assay and IFN-gamma ELISA were performed under manufacture procedure.

[2] = test system: peptide-pulsed A24LCL cells; experiment: IFN-gamma ELISA on expanded CTL lines, HLA-A24 peptides; format: cell-based, human; conditions: expanded cells of positive wells, FIG. 3E, 3G
Procedure: (§3) CTLs were expanded in culture using a similar method as reported by Riddell, et al. (Walter et al., N Engl J Med 333(16): 1038-44, 1995; Riddell et al., Nat Med 2(2): 216-23, 1996 February). A total of 5×10^4 CTLs were resuspended in 25 ml of AIM-V/5% AS with 2 kinds of human B-lymphoblastoid cell lines, inactivated with MMC, in the presence of 40 ng/ml of anti-CD3 monoclonal antibody (Pharmingen). One day after initiating the cultures, 120 IU/ml of IL-2 were added to the cultures. The cultures were fed with fresh AIM-V/5% AS containing 30 IU/ml of IL-2 on days 5, 8 and 11.
as §2
(§4) These cells in the positive wells were expanded and performed IFN-gamma ELISA assay.

[3] = test system: peptide-pulsed A24LCL cells; experiment: IFN-gamma ELISPOT on CTLs induced with HLA-A2402 restricted Foxp3 peptides; format: cell-based, human; conditions: FIG. 1A/1B
Excerpt: as §1, §2
CTLs for the peptides derived from Foxp3 protein were generated according to the method described in the “Materials and Methods”, supra.

peptide-pulsed T2 cells [4] = experiment: IFN-gamma ELISPOT on CTLs induced with HLA-A0201 restricted Foxp3 peptides; format: cell-based, human; conditions: FIG. 2A/2B/2C
Excerpt: as §1, §2
Resulting CTLs showing detectable specific CTL activity were shown in FIG. 2A, FIG. 2B and FIG. 2C when performed by IFN-gamma ELISPOT assay.

peptide-pulsed T2 cells [5] = experiment: IFN-gamma ELISA on expanded CTL lines, HLA-A02 peptides; format: cell-based, human; conditions: expanded cells of positive wells, FIG. 3A-D, 3F
Procedure: as §3, §2, §4

[6] = test system: 293T that transfected both Foxp3 and HLA-A02; experiment: Specific CTL activity against target cells expressing Foxp3 and HLA-A02; format: cell-based, human
Procedure: as §2
The established CTL clone raised against these peptides were examined for their ability to recognize the target cells endogenously expressing Foxp3 and HLA-A*24 or 02. Specific CTL activity against 293T transfected both full length of Foxp3 gene and HLA-A*24 or 02 molecule, which is specific model for the target cells endogenously express Foxp3 and HLA-A*24 or 02, was tested using the CTL lines raised by Foxp3-A02-9-390 (SEQ ID NO: 15) and Foxp3-A02-9-252 (SEQ ID NO: 17) as effector cells. […] Furthermore, these peptides were epitope peptides, which can utilize vaccine targeting Foxp3 expressed T-regs.

Substance	mice with peptide specific CTL response (BALB/c mice; IFA-conjugated peptide s.c. day 0 and 7, splenocytes day 14, RLmale1 stimulator cells, FIG. 5)	induction of epitope specific CTLs in vivo (BALB/c mice; vaccination of BALB/c mice, discussion)	tumor growth / antitumor effect (4T1 breast cancer cells; listed as Foxp3-252_m)	tumor growth / antitumor effect (4T1 breast cancer cells; listed as mFoxp3-252)	specific CTL activity [1]	establishment of CTLs [1]	IFN-gamma production of CTL lines stimulated with peptide, compared with the control [2]	IFN-gamma production of CTLs stimulated with peptide, compared with the control [3]	IFN-gamma production of CTLs stimulated with peptide, compared with the control (peptide-pulsed T2 cells [4])	IFN-gamma production of CTL lines stimulated with peptide, compared with the control (peptide-pulsed T2 cells [5])	specific CTL activity of CTL lines raised by peptide ([6]; against 293T transfected with both Foxp3 and HLA-A02, FIG. 4A/4B)	specific CTL activity against controls ([6]; controls of FIG. 4A/4B)
KLGAMQAHL (peptide vaccine) [SEQ ID NO 88, mouse Foxp3-9-252 peptide]	one of five	could induce epitope specific CTLs in vivo	tumor growth apparently reduced; also recorded: Significant difference of tumor growth suppression	obviously anti-tumor effects								
GPLPhLQALL (GPLPHLQALL; not fully specified (residue 5); printed as GPLPhLQALL) [SEQ ID NO 67]					significant and specific CTL activity	CTLs were successfully established	potent IFN-gamma production	potent IFN-gamma production				
ALLQDRPHFM (peptide vaccine) [SEQ ID NO 27]					significant and specific CTL activity	CTLs were successfully established			potent IFN-gamma production	potent IFN-gamma production		
SLNPmPPSQL (chain 1 SLNPMPPSQL; chain 2 SLNPMPPSQL; not fully specified (some residues)) [SEQ ID NO 74]					significant and specific CTL activity	CTLs were successfully established	potent IFN-gamma production	potent IFN-gamma production				
SLHKCFVRV (peptide vaccine) [SEQ ID NO 15]					significant and specific CTL activity	CTLs were successfully established			potent IFN-gamma production	potent IFN-gamma production	high specific CTL activity	did not show significant specific CTL activity
